Test systems include BT-549 breast; MCF7 breast; MDA-MB-231 breast.
Common to all, as to assay: inhibition of tumour cell growth, NCI panel, 48 h

Several values for one entry are separate records, joined by “and”; a condition that tells them apart may be missing. Equal entries are not always repeated.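 Step 1: Grow cells in 96-well plates. Step 2: Expose to compound for 48 hours at 5 concentrations. Step 3: Interpolate endpoints linearly; if unreached, use highest concentration. Here, GI50 denotes the concentration required for 50% inhibition of growth. TGI marks complete inhibition of growth.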

As to `CCOC(=O)C1=C(C)NC2SC(=O)/C(=C\c3ccccc3Cl)N2C1c1ccccc1` (stereo not drawn), the GI50 in the assay with BT-549 breast, in the assay with MCF7 breast and in the assay on MDA-MB-231 breast was greater than 100 µM throughout. Further, the TGI in the assay on BT-549 breast, in the assay with MCF7 breast and with MDA-MB-231 breast was greater than 100 µM in each case.

Turning to `CCCCN(CCCC)c1ccc(C(=N)c2ccc(N(C)C)cc2)cc1`, the GI50 with BT-549 breast is 1.29 µM; with MCF7 breast, 0.377 µM; in the assay with MDA-MB-231 breast, 1.32 µM. Also, the TGI amounted to 2.64 µM with BT-549 breast, 1.51 µM with MCF7 breast and 2.88 µM in the assay on MDA-MB-231 breast.

For the compound `CN(CCC#N)c1ccc(/C=C(\C#N)c2cccc(C(F)(F)F)c2)cc1`, the GI50 was 3.28 µM in the assay on BT-549 breast, 0.544 µM with MCF7 breast and 4.56 µM with MDA-MB-231 breast. Moreover, the TGI was 34.3 µM in the assay with BT-549 breast, greater than 100 µM in the assay on MCF7 breast and greater than 100 µM in the assay on MDA-MB-231 breast.

On to `C=C1C(=O)O[C@H]2[C@H]1CC/C(Cn1cc(CNCCc3c[nH]c4ccc(Cl)cc34)nn1)=C\CC[C@@]1(C)O[C@@H]21`, for which the GI50 in the assay on BT-549 breast was 3.88 µM; with MCF7 breast, 2.59 µM; with MDA-MB-231 breast it was 4.04 µM. The results for the TGI with BT-549 breast, in the assay with MCF7 breast and in the assay with MDA-MB-231 breast were 17 µM, 11.5 µM and 16.2 µM, respectively.

On to `CCN(CC)C(=O)CC1=C(C)/C(=C/c2[nH]c(-c3ccc[nH]3)cc2OC)N=C1C`, for which the GI50 is 0.787 µM with BT-549 breast, 0.458 µM in the assay on MCF7 breast and 0.213 µM in the assay on MDA-MB-231 breast. Also, the TGI was determined as 47.1 µM in the assay with BT-549 breast, 17.9 µM in the assay on MCF7 breast and 0.909 µM in the assay with MDA-MB-231 breast.

As to `O=[N+]([O-])c1cc([N+](=O)[O-])c(Cl)c(Cl)c1Cl`, in the assay with BT-549 breast, the GI50 was 8.84 µM and the TGI stood at 21 µM. Moreover, in the assay on MDA-MB-231 breast, the GI50 is 1.71 µM and the TGI was determined as 3.24 µM.

Turning to `CC1=CC[C@@H]2C(C)(C)C(=O)CC[C@@]2(C)[C@@H]1COc1ccc2ccc(=O)oc2c1`, the results for the GI50 with BT-549 breast, in the assay on MCF7 breast and with MDA-MB-231 breast were 4.37 µM, 12.4 µM and 25.5 µM, respectively. Further, the results for the TGI in the assay with BT-549 breast, with MCF7 breast and in the assay with MDA-MB-231 breast were 22.5 µM, 31.9 µM and greater than 100 µM, respectively.

Take `COc1cccc(C(=O)Nc2ccc(CN3CCc4nc5cc(OC)c(OC)cc5cc43)cc2)c1`: the figures for the GI50 in the assay on BT-549 breast, in the assay with MCF7 breast and in the assay with MDA-MB-231 breast were 5.32 µM, 3.19 µM and 2.59 µM, respectively. Also, the TGI was found to be 22.8 µM in the assay on BT-549 breast, 20.5 µM in the assay on MCF7 breast and 11 µM with MDA-MB-231 breast.

As for `Cc1c(C)c2c(c(C)c1NC(=O)/C=C\C(=O)O)CCC(C)(CCCC(C)CCCC(C)CCCC(C)C)O2` (stereo not drawn), the GI50 is 1.35 µM in the assay on BT-549 breast, 2.2 µM in the assay on MCF7 breast and 1.94 µM in the assay on MDA-MB-231 breast. Further, the TGI in the assay on BT-549 breast stood at 2.69 µM; in the assay on MCF7 breast, 5.32 µM; with MDA-MB-231 breast, 3.55 µM.

With `O=C(/C=C/C12c3ccccc3C(c3ccccc31)C1C(=O)N(c3ccccc3)C(=O)C12)c1ccc(Cl)cc1` (stereo not drawn), the figures for the GI50 in the assay on BT-549 breast, with MCF7 breast and in the assay with MDA-MB-231 breast were 1.37 µM, 0.885 µM and 1.64 µM, respectively. Moreover, the TGI with BT-549 breast is 2.88 µM; with MCF7 breast, greater than 100 µM; in the assay with MDA-MB-231 breast, 3.9 µM.

Turning to `O=C(COc1ccc(/C=C2\Oc3ccccc3C2=O)cc1)Nc1nccs1`, the GI50 in the assay on BT-549 breast is 18.5 µM; in the assay on MCF7 breast it was 43.2 µM; in the assay with MDA-MB-231 breast, 33.4 µM. Moreover, the TGI was 96.9 µM with BT-549 breast, greater than 100 µM in the assay on MCF7 breast and greater than 100 µM with MDA-MB-231 breast.

Turning to `COc1cc(NS(C)(=O)=O)ccc1Nc1c2ccccc2nc2c(C)cccc12`, the GI50 is 0.412 µM and 0.394 µM in the assay with BT-549 breast; 0.0248 µM and 0.0337 µM in the assay on MCF7 breast; 1.73 µM and 2.88 µM with MDA-MB-231 breast. For the same compound, the TGI is 4.62 µM and 2.86 µM with BT-549 breast; 4.42 µM and 11.9 µM with MCF7 breast; 7.01 µM and 15.3 µM in the assay on MDA-MB-231 breast.

Consider `COc1cc(N2CCN(C(C)C)CC2)ccc1Nc1nc(Nc2cccc3ncccc23)c2cc[nH]c2n1`, for which the GI50 with BT-549 breast is 4.75 µM; with MCF7 breast it was 1.3 µM; in the assay on MDA-MB-231 breast, 4.37 µM. The TGI in the assay on BT-549 breast was 13.6 µM; in the assay with MCF7 breast, greater than 25 µM; with MDA-MB-231 breast it was 11 µM.

Regarding `Cc1csc(/C=N/NC(=O)c2nnn(-c3ccnc4c(C(F)(F)F)cccc34)c2C)c1`, the GI50 was greater than 100 µM in the assay with BT-549 breast, greater than 100 µM in the assay with MCF7 breast and 31.7 µM with MDA-MB-231 breast. Further, the TGI in the assay with BT-549 breast, in the assay on MCF7 breast and with MDA-MB-231 breast was greater than 100 µM throughout.

With `COc1ccc(C[n+]2c3ccccc3n3c4ccc(N)cc4ccc32)c(OC)c1OC`, the GI50 with BT-549 breast was 2.42 µM; with MCF7 breast, 1.11 µM; in the assay with MDA-MB-231 breast, 9.25 µM. In addition, the TGI in the assay on BT-549 breast is 16.5 µM; in the assay with MCF7 breast it was 26.1 µM; with MDA-MB-231 breast, 31.7 µM.

As to `NC(=O)c1cc(-c2ccncc2)cc(-c2ccccc2)c1N`, the GI50 with BT-549 breast was 22.5 µM; with MCF7 breast, greater than 25 µM; in the assay on MDA-MB-231 breast it was 12.2 µM. The TGI in the assay with BT-549 breast, in the assay on MCF7 breast and in the assay on MDA-MB-231 breast was greater than 25 µM throughout.

For `Oc1c(C(Nc2cccc3ccccc23)c2ccccc2)ccc2cccnc12` (stereo not drawn), the GI50 with BT-549 breast is 2.07 µM; in the assay with MCF7 breast, 3.2 µM; with MDA-MB-231 breast, 12 µM. For the same compound, the TGI in the assay on BT-549 breast is 14.5 µM; with MCF7 breast it was greater than 100 µM; in the assay with MDA-MB-231 breast, 70.8 µM.

For the compound `CN(Cc1cnc(N)nc1N)c1ccc(C(=O)O)cc1`, the GI50 with BT-549 breast, in the assay on MCF7 breast and in the assay with MDA-MB-231 breast was greater than 100 µM throughout. For the same compound, the TGI in the assay on BT-549 breast, in the assay on MCF7 breast and in the assay on MDA-MB-231 breast was greater than 100 µM throughout.

For the compound `Cc1cc2cccnc2c2ncccc12`, the GI50 is 2.67 µM in the assay with BT-549 breast, 2.62 µM in the assay on MCF7 breast and 0.74 µM in the assay on MDA-MB-231 breast. Also, the TGI is 41.9 µM in the assay with BT-549 breast, greater than 100 µM in the assay with MCF7 breast and greater than 100 µM in the assay on MDA-MB-231 breast.

Take `N#CC(C#N)=Cc1c(-c2ccccc2)[nH]c2ccccc12`: the GI50 was 8.45 µM with BT-549 breast, 1.07 µM in the assay with MCF7 breast and 1.42 µM in the assay on MDA-MB-231 breast. The TGI was greater than 100 µM in the assay on BT-549 breast, greater than 47.2 µM with MCF7 breast and 30.3 µM with MDA-MB-231 breast.

For the compound `O=C(Cn1c(=O)c(-c2ccccc2)nc2ccccc21)c1ccc(Cl)cc1`, in the assay on MCF7 breast, the GI50 is 71.2 µM and the TGI is greater than 100 µM. For the same compound, in the assay on MDA-MB-231 breast, the GI50 is 40.9 µM and the TGI is greater than 100 µM.

As for `O=C(/C=C/c1ccccc1)c1c[nH]c2ccccc2c1=O`, the GI50 with BT-549 breast is 4.84 µM; in the assay on MCF7 breast it was 2.33 µM; in the assay with MDA-MB-231 breast, 4.22 µM. Further, the TGI was 17.8 µM with BT-549 breast, 12.6 µM in the assay with MCF7 breast and 18.7 µM with MDA-MB-231 breast.

Turning to `COc1ccc2c(c1)[C@]1(C[C@H]1c1ccc3c(/C=C/c4ccc(CN5C[C@@H](C)O[C@@H](C)C5)cc4)n[nH]c3c1)C(=O)N2`, the GI50 in the assay on BT-549 breast was 1.75 µM; with MCF7 breast it was 1.59 µM; in the assay with MDA-MB-231 breast, 4.35 µM. The TGI in the assay on BT-549 breast was 5.29 µM; with MCF7 breast it was greater than 75.4 µM; in the assay with MDA-MB-231 breast it was greater than 54 µM.

As to `CN1CCN(CCCOc2cccc3nc(Nc4ccc(Cl)c(F)c4)ccc23)CC1`, the GI50 is 2.4 µM in the assay on BT-549 breast, 1.31 µM in the assay with MCF7 breast and 1.68 µM in the assay on MDA-MB-231 breast. Further, the TGI stood at 7.73 µM in the assay with BT-549 breast, 2.77 µM in the assay on MCF7 breast and 3.39 µM in the assay with MDA-MB-231 breast.

With `Cc1cc(N2CCN(C)CC2)nc(NCc2cc(Nc3ccnc4cc(Cl)ccc34)ccc2F)n1`, in the assay on BT-549 breast, the GI50 is 2.13 µM and the TGI worked out at 4.64 µM. For the same compound, in the assay with MCF7 breast, the GI50 was 0.334 µM and the TGI came out at 2.75 µM.

For the compound `Cn1cc(C2=C(c3c4n(c5ccccc35)CCCC4)C(=O)NC2=O)c2ccccc21`, the GI50 with BT-549 breast is greater than 18.5 µM; with MCF7 breast, 6.58 µM; with MDA-MB-231 breast it was greater than 20.2 µM. The TGI with BT-549 breast, in the assay with MCF7 breast and with MDA-MB-231 breast was greater than 25 µM in each case.

Take `COc1cc2c(c(OC)c1OC)C(=O)CC(c1cccc(NC(=O)c3ccc(Br)cc3)c1)O2` (stereo not drawn): the GI50 is 2.09 µM in the assay on BT-549 breast and 1.9 µM in the assay on MCF7 breast. For the same compound, the TGI in the assay on BT-549 breast was found to be 6.39 µM; in the assay with MCF7 breast, 49.3 µM.

With `COc1ccc(-c2nn(-c3ccc(NC(=O)c4ccc(Cl)c(C(F)(F)F)c4)cc3)cc2-c2ccncc2)cc1Cl`, the GI50 is 1.16 µM in the assay with BT-549 breast, 1.59 µM in the assay with MCF7 breast and 0.317 µM in the assay with MDA-MB-231 breast. The results for the TGI with BT-549 breast, with MCF7 breast and with MDA-MB-231 breast were 96.9 µM, greater than 100 µM and 1.35 µM, respectively.

Consider `O=S(=O)(Nc1cc(Br)c(O)c2ccccc12)c1ccc(F)cc1`, for which, in the assay on BT-549 breast, the GI50 was 8.45 µM and the TGI was found to be 21.2 µM. Further, in the assay with MDA-MB-231 breast, the GI50 is 2.1 µM and the TGI was 5.5 µM.

In the case of `COc1ccc(Cl)cc1Nc1nc(C(F)(F)F)ccc1C(=O)N/N=C/c1ccc([N+](=O)[O-])cc1`, in the assay on MCF7 breast, the GI50 is 2.2 µM and the TGI was found to be 7.85 µM. In the assay on MDA-MB-231 breast, the GI50 is 1.49 µM and the TGI was 4.38 µM.

The values above are taken from PubChem BioAssay (NCI).
